Laboratory results from patent US10689331B2, “IDO inhibitors” (Bristol-Myers Squibb Company, priority 2015, dated 2020).

Molecular target: T1, human IDO1 (Homo sapiens, UniProt P14902)
T1 construct: expressed in transfected cells
Test: HEK Human IDO-1 inhibition assay (kynurenine readout, Ehrlich reagent, absorbance 490 nm)
Format: cell-based
Details: human IDO1/HEK293 cells, incubated 20 hours with compound; 500 nM reference standard = 100% inhibition
Procedure, shortened: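 HEK293 cells stably expressing human IDO1, treated with compound for 20 h at 37 °C in phenol red-free RPMI/10% FBS. Kynurenine detected after TCA (0.2% final, 50 °C, 30 min) by Ehrlich reagent absorbance at 490 nm; IC50 normalised to 500 nM reference standard (100%) and DMSO (0%).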

T1 sequence (P14902 whole entry): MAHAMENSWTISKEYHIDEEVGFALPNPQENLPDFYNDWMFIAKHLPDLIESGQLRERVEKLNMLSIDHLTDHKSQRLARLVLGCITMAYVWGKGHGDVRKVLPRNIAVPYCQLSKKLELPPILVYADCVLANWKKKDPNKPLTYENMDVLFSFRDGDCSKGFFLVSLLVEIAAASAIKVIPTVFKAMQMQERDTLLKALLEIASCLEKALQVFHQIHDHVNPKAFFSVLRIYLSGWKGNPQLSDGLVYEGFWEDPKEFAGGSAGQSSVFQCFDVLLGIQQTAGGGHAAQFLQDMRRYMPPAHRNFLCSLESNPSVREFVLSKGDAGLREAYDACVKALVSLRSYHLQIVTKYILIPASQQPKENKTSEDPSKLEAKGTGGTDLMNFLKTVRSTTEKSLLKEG

Compound	IC50 [nM]
Cc1ccc(NC(=O)Nc2cc(OCC(=O)NS(=O)(=O)N(C)C)ccc2N(CC(C)C)C2CCCCC2)cc1 [Example 52, 2-(4-(cyclohexyl(isobutyl)amino)-3-(3-(p-tolyl)ureido)phenoxy)-N—(N,N-dimethylsulfamoyl)acetamide]	< 100
Cc1ccc(NC(=O)Nc2cc(OCC(=O)NS(=O)(=O)C3CC3)ccc2N(CC(C)C)C2CCCCC2)cc1 [Example 53, 2-(4-(cyclohexyl(isobutyl)amino)-3-(3-(p-tolyl)ureido)phenoxy)-N-(cyclopropylsulfonyl)acetamide]	< 100
CC(C)CN(c1ccc(OCC(=O)O)cc1NC(=O)Cc1ccc(Cl)c(F)c1)C1CCCCC1 [Example 54, 2-(3-(2-(4-chloro-3-fluorophenyl)acetamido)-4-(cyclohexyl(isobutyl)amino)phenoxy)acetic acid]	≥ 100
Cc1ccc(CC(=O)Nc2cc(OCC(=O)O)ccc2N(CC(C)C)C2CCCCC2)c(F)c1 [Example 55, 2-(4-(cyclohexyl(isobutyl)amino)-3-(2-(2-fluoro-4-methylphenyl)acetamido)phenoxy)acetic acid]	< 100
CC(C)CN(c1ccc(OCC(=O)O)cc1NC(=O)Cc1ccc(F)cc1F)C1CCCCC1 [Example 56, 2-(4-(cyclohexyl(isobutyl)amino)-3-(2-(2,4-difluorophenyl)acetamido)phenoxy)acetic acid]	≥ 100
CC(C)CN(c1ccc(OCC(=O)O)cc1NC(=O)Cc1ccc(F)cc1)C1CCCCC1 [Example 57, 2-(4-(cyclohexyl(isobutyl)amino)-3-(2-(4-fluorophenyl)acetamido)phenoxy)acetic acid]	≥ 100
CC(C)CN(c1ccc(OC(C)(C)C(=O)O)cc1NC(=O)Nc1ccc(Cl)cc1F)C1CCCCC1 [Example 91, 2-(3-(3-(4-chloro-2-fluorophenyl)ureido)-4-(cyclohexyl(isobutyl)amino)phenoxy)-2-methylpropanoic acid]	< 5
Cc1ccc(NC(=O)Nc2cc(OC(C)(C)C(=O)O)ccc2N(CC(C)C)C2CCCCC2)cc1 [Example 92, 2-(4-(cyclohexyl(isobutyl)amino)-3-(3-(p-tolyl)ureido)phenoxy)-2-methylpropanoic acid]	< 5
CC(C)CN(c1ccc(OC2(C(=O)O)CC2)cc1NC(=O)Nc1ccc(Cl)cc1F)C1CCCCC1 [Example 93, 1-(3-(3-(4-chloro-2-fluorophenyl)ureido)-4-(cyclohexyl(isobutyl)amino)phenoxy)cyclopropanecarboxylic acid]	< 5
Cc1ccc(NC(=O)Nc2cc(OC3(C(=O)O)CC3)ccc2N(CC(C)C)C2CCCCC2)cc1 [Example 94, 1-(4-(cyclohexyl(isobutyl)amino)-3-(3-(p-tolyl)ureido)phenoxy)cyclopropanecarboxylic acid]	< 5
Cc1ccc(NC(=O)Nc2cc(OCc3nnn[nH]3)c(F)cc2N(CC(C)C)CC(C)C)cc1 [Example 95, 1-(5-((1H-tetrazol-5-yl)methoxy)-2-(diisobutylamino)-4-fluorophenyl)-3-(p-tolyl)urea]	< 100
CC(C)CN(c1ccc(OCc2nnn[nH]2)cc1NC(=O)Nc1ccc(Cl)cc1F)C1CCCCC1 [Example 96, 1-(5-((1H-tetrazol-5-yl)methoxy)-2-(cyclohexyl(isobutyl)amino)phenyl)-3-(4-chloro-2-fluorophenyl)urea]	< 5
CC(C)CN(c1ccc(OCc2nnn[nH]2)cc1NC(=O)Nc1ccccc1F)C1CCCCC1 [Example 97, 1-(5-((1H-tetrazol-5-yl)methoxy)-2-(cyclohexyl(isobutyl)amino)phenyl)-3-(2-fluorophenyl)urea]	< 5
CC(C)CN(c1ccc(OCC(=O)O)cc1NC(=O)Nc1ccc(Cl)cc1F)C1CCC(F)(F)CC1 [Example 98, 2-(3-(3-(4-Chloro-2-fluorophenyl)ureido)-4-((4,4-difluorocyclohexyl)(isobutyl)amino)-phenoxy)acetic acid]	< 5
CC(C)CN(c1ccc(OCC(=O)O)cc1NC(=O)Nc1ccc(Br)cc1F)C1CCC(F)(F)CC1 [Example 99, 2-(3-(3-(4-Bromo-2-fluorophenyl)ureido)-4-((4,4-difluorocyclohexyl)(isobutyl)amino)-phenoxy)acetic acid]	< 5
CCOc1ccc(NC(=O)Nc2cc(OCC(=O)O)ccc2N(CC(C)C)C2CCC(F)(F)CC2)cc1 [Example 100, 2-(4-((4,4-Difluorocyclohexyl)(isobutyl)amino)-3-(3-(4-ethoxyphenyl)ureido)phenoxy)acetic acid]	≥ 100
CC(C)CN(c1ncc(OCC(=O)O)cc1NC(=O)Nc1ccc(Cl)cc1F)C1CCCCC1 [Example 102, 2-((5-(3-(4-chloro-2-fluorophenyl)ureido)-6-(cyclohexyl(isobutyl)amino)pyridin-3-yl)oxy)acetic acid]	< 5
CC(C)CN(c1ncc(OCC(=O)NS(=O)(=O)C2CC2)cc1NC(=O)Nc1ccc(Cl)cc1F)C1CCCCC1 [Example 103, 2-((5-(3-(4-chloro-2-fluorophenyl)ureido)-6-(cyclohexyl(isobutyl)amino)pyridin-3-yl)oxy)-N-(cyclopropylsulfonyl)acetamide]	< 5

Compound	IC50 [nM]
CC(C)CN(c1c(F)cc(OCC(=O)O)cc1NC(=O)Nc1ccc(Cl)cc1F)C1CCCCC1 [Example 104, 2-(3-(3-(4-chloro-2-fluorophenyl)ureido)-4-(cyclohexyl(isobutyl)amino)-5-fluorophenoxy)acetic acid]	< 5
CC(C)CN(c1c(F)cc(OCC(=O)NS(=O)(=O)C2CC2)cc1NC(=O)Nc1ccc(Cl)cc1F)C1CCCCC1 [Example 105, 2-(3-(3-(4-chloro-2-fluorophenyl)ureido)-4-(cyclohexyl(isobutyl)amino)-5-fluorophenoxy)-N-(cyclopropylsulfonyl)acetamide]	< 5
CC(C)CN(c1c(F)cc(OCC(=O)O)cc1NC(=O)Nc1cc(F)ccc1F)C1CCCCC1 [Example 106, 2-(4-(cyclohexyl(isobutyl)amino)-3-(3-(2,5-difluorophenyl)ureido)-5-fluorophenoxy)acetic acid]	< 5
CC(C)CN(c1ccc(OCC(=O)O)c(F)c1NC(=O)Nc1ccc(Cl)cc1F)C1CCCCC1 [Example 107, 2-(3-(3-(4-chloro-2-fluorophenyl)ureido)-4-(cyclohexyl(isobutyl)amino)-2-fluorophenoxy)acetic acid]	≥ 100
CC(C)CN(c1c(C#N)cc(OCC(=O)O)cc1NC(=O)Nc1ccc(Cl)cc1F)C1CCCCC1 [Example 108, 2-(3-(3-(4-chloro-2-fluorophenyl)ureido)-5-cyano-4-(cyclohexyl(isobutyl)amino)phenoxy)acetic acid]	< 100
Cc1ccc(NC(=O)Nc2cc(OCC(=O)O)ccc2N(CC(C)C)C2CCCCC2)cc1 [Example 109, 2-(4-(cyclohexyl(isobutyl)amino)-3-(3-(p-tolyl)ureido)phenoxy)acetic acid]	< 100
CC(C)CN(c1ccc(OCC(=O)O)cc1NC(=O)Cc1ccc(Cl)cc1F)C1CCCCC1 [Example 110, 2-(3-(2-(4-chloro-2-fluorophenyl)acetamido)-4-(cyclohexyl(isobutyl)amino)phenoxy)acetic acid]	< 100
Cc1cnc(NC(=O)COc2ccc(N(CC(C)C)C3CCCCC3)c(NC(=O)Nc3ccc(Cl)cc3F)c2)s1 [Example 111, 2-(3-(3-(4-chloro-2-fluorophenyl)ureido)-4-(cyclohexyl(isobutyl)amino)phenoxy)-N-(5-methylthiazol-2-yl)acetamide]	≥ 100
Cc1ccc(NC(=O)Nc2cc(OCC(=O)O)ccc2N(CC(C)C)CC(C)C)cc1 [Example 112, 2-(4-(diisobutylamino)-3-(3-(p-tolyl)ureido)phenoxy)acetic acid]	≥ 100
C=C(C)CN(CCCC(F)(F)F)c1cc(F)c(OCC(=O)O)cc1NC(=O)Nc1ccc(Cl)cc1F [Example 113, 2-(5-(3-(4-chloro-2-fluorophenyl)ureido)-2-fluoro-4-((2-methylallyl)(4,4,4-trifluorobutyl)amino)phenoxy)acetic acid]	< 5
Cc1cc(NC(=O)Nc2cc(OCC(=O)O)c(F)cc2N(CC(C)C)C2CCCCC2)on1 [Example 114, 2-(4-(cyclohexyl(isobutyl)amino)-2-fluoro-5-(3-(3-methylisoxazol-5-yl)ureido)phenoxy)acetic acid]	≥ 100
CC(C)CN(c1cc(F)c(OCC(=O)O)cc1NC(=O)Nc1ccc(Cl)cc1F)C1CCCCC1 [Example 115, 2-(5-(3-(4-chloro-2-fluorophenyl)ureido)-4-(cyclohexyl(isobutyl)amino)-2-fluorophenoxy)acetic acid]	< 5
COCCN(c1ccc(OCC(=O)O)cc1NC(=O)Nc1ccc(Cl)cc1F)C1CCCCC1 [Example 116, 2-(3-(3-(4-chloro-2-fluorophenyl)ureido)-4-(cyclohexyl(2-methoxyethyl)amino)phenoxy)acetic acid]	< 100
COCCN(c1ccc(OCC(=O)O)cc1NC(=O)Nc1ccc(F)cc1F)C1CCCCC1 [Example 117, 2-(4-(cyclohexyl(2-methoxyethyl)amino)-3-(3-(2,4-difluorophenyl)ureido)phenoxy)acetic acid]	≥ 100
O=C(O)COc1ccc(N(CC2CC2)C2CCCCC2)c(NC(=O)Nc2ccc(Cl)cc2F)c1 [Example 118, 2-(3-(3-(4-chloro-2-fluorophenyl)ureido)-4-(cyclohexyl(cyclopropylmethyl)amino)phenoxy)acetic acid]	< 100
CC(C)CN(c1cc(Cl)c(OCC(=O)O)cc1NC(=O)Nc1ccc(Cl)cc1F)C1CCCCC1 [Example 119, 2-(2-chloro-5-(3-(4-chloro-2-fluorophenyl)ureido)-4-(cyclohexyl(isobutyl)amino)phenoxy)acetic acid]	< 100
C=C(C)CN(CCCC(F)(F)F)c1cc(F)c(OCC(=O)O)cc1NC(=O)Nc1ccc(C)cc1 [Example 120]	< 100
C=C(C)CN(CCCC(F)(F)F)c1cc(F)c(OCC(=O)O)cc1NC(=O)Nc1cc(C)no1 [Example 121, 2-(2-fluoro-4-((2-methylallyl)(4,4,4-trifluorobutyl)amino)-5-(3-(3-methylisoxazol-5-yl)ureido)phenoxy)acetic acid]	< 100
